≈ marks a conversion by molar mass, not a printed value.

A word on the MIC: it is the smallest concentration in the dilution series that meets the test's criterion for growth inhibition. Lower therefore signals greater potency.

The subject of this assay is Escherichia coli. In words: Antimicrobial activity against Escherichia coli AJE0508 isolate carrying ISCR1 element related blaCTX-M-14 gene by agar dilution method. It is filed as functional. A general note: In agar dilution, organisms are placed on agar that contains the substance at set levels.
Turning to `CO[C@@]1(NC(=O)Cc2cccs2)C(=O)N2C(C(=O)O)=C(COC(N)=O)CS[C@@H]21` [CEFOXITIN], the MIC came to 8 µg/mL (≈ 18.7 µM).
Next, `CC(C)(O/N=C(\C(=O)N[C@@H]1C(=O)N2C(C(=O)[O-])=C(C[n+]3ccccc3)CS[C@H]12)c1csc(N)n1)C(=O)O` [CEFTAZIDIME]: 32 µg/mL (≈ 58.5 µM); `C[C@@H](O)[C@H]1C(=O)N2C(C(=O)O)=C(SCCNC=N)C[C@H]12` [IMIPENEM ANHYDROUS]: 0.1 µg/mL (≈ 0.334 µM).
Next, `C[C@H]1[C@H](NC(=O)/C(=N\OC(C)(C)C(=O)O)c2csc(N)n2)C(=O)N1S(=O)(=O)O` [AZTREONAM]: 64 µg/mL (≈ 147 µM); `CC1(C)S[C@@H]2[C@H](NC(=O)[C@H](N)c3ccccc3)C(=O)N2[C@H]1C(=O)O` [AMPICILLIN]: more than 256 µg/mL.
Next, `CO/N=C(\C(=O)N[C@@H]1C(=O)N2C(C(=O)O)=C(COC(C)=O)CS[C@H]12)c1csc(N)n1` [CEFOTAXIME]: 64 µg/mL (≈ 141 µM).

The values above are taken from ChEMBL document CHEMBL1155160, “Novel complex class 1 integron bearing an ISCR1 element in an Escherichia coli isolate carrying the blaCTX-M-14 gene” (2007).
